# Assay results taken from patent US20230159552A1, “[…] ITS ANALOGUES, METHODS FOR THEIR PREPARATION, AND METHODS OF USE” (priority 2020, published 2023).
# Read-outs that look alike come from different tables or passages of the source.
# Columns and labels:
# L1210 = assay: Cytotoxicity against L1210 cell line; assay type: cell-based; conditions: Mus musculus, murine lymphocytic leukemia cell line
# Text: (§1) The results of the initial evaluation for cytotoxicity against various cancer cell lines of analogues 38a-f, along with those for 1, 36 and intermediate alcohol 35 are summarized in Table A. L1210 is a murine lymphocytic leukemia cell line. HCT116 and HCT116/VM46 are human colon cancer cell lines, with the latter being a multi-drug resistant variant of the former. MCF-7 is a human breast cancer cell line.
# MCF-7 = assay: Cytotoxicity against MCF-7 cell line; assay type: cell-based, human
# Text: as §1
# HCT116/VM46 = assay: Cytotoxicity against HCT116/VM46 cell line (multi-drug resistant variant); assay type: cell-based, human
# Text: as §1
# HCT116 = assay: Cytotoxicity against HCT116 cell line; assay type: cell-based, human
# Text: as §1
# [1] = MCF7, human breast cancer cell line, read-out: Cell Line (IC50, nM) MCT-7
# [2] = HCT-116/VM46, multi-drug resistant human colon cancer cell line, read-out: Cell Line (IC50, nM) HCT116/ VM46
# [3] = HCT-116, human colon cancer cell line, read-out: Cell Line (IC50, nM) HCT116
Structure (SMILES),IC50 (L1210),IC50 (MCF-7; [1]),IC50 (HCT116/VM46; [2]),IC50 (HCT116; [3]),"fold less potent than 1 (HCT116; relative to meayamycin (1), cell line not given)","IC50 (MCF-7; Homo sapiens, MCF7, read-out: Cell Line (IC50, nM) MCT-7)","IC50 (HCT116/VM46; Homo sapiens, HCT-116/VM46, read-out: Cell Line (IC50, nM) HCT116/ VM46)","IC50 (HCT116; Homo sapiens, HCT-116, read-out: Cell Line (IC50, nM) HCT116)"
CC(/C=C/[C@H]1OC(C)(C)C[C@@]2(CO2)[C@@H]1O)=C\C[C@@H]1O[C@H](C)[C@H](NC(=O)/C=C\[C@H](C)O)C[C@@H]1C [Compound 35],7.8 nM,47 nM,7.4 nM,9.7 nM,,,,
CC(/C=C/[C@H]1OC(C)(C)C[C@@]2(CO2)[C@@H]1O)=C\C[C@@H]1O[C@H](C)[C@H](NC(=O)/C=C\[C@H](C)OC(=O)N2CCN(C)CC2)C[C@@H]1C [Compound 36],790 nM,930 nM,840 nM,630 nM,,,,
CC(/C=C/[C@H]1OC(C)(C)C[C@@]2(CO2)[C@@H]1O)=C\C[C@@H]1O[C@H](C)[C@H](NC(=O)/C=C\[C@H](C)OC(=O)N2CCSCC2)C[C@@H]1C [Compound 38b],0.6 nM,0.42 nM,0.52 nM,0.48 nM,,,,
CC(/C=C/[C@H]1OC(C)(C)C[C@@]2(CO2)[C@@H]1O)=C\C[C@@H]1O[C@H](C)[C@H](NC(=O)/C=C\[C@H](C)OC(=O)N2CCCCC2)C[C@@H]1C [Compound 38c],0.44 nM,2.7 nM,0.59 nM,0.68 nM,,,,
CC(/C=C/[C@H]1OC(C)(C)C[C@@]2(CO2)[C@@H]1O)=C\C[C@@H]1O[C@H](C)[C@H](NC(=O)/C=C\[C@H](C)OC(=O)N(C)C)C[C@@H]1C [Compound 38d],0.58 nM,0.39 nM,0.53 nM,0.54 nM,,,,
CC(/C=C/[C@H]1OC(C)(C)C[C@@]2(CO2)[C@@H]1O)=C\C[C@@H]1O[C@H](C)[C@H](NC(=O)/C=C\[C@H](C)OC(=O)c2ccccc2)C[C@@H]1C [Compound 38e],1.8 nM,2.4 nM,0.65 nM,0.72 nM,,,,
CC(/C=C/[C@H]1OC(C)(C)C[C@@]2(CO2)[C@@H]1O)=C\C[C@@H]1O[C@H](C)[C@H](NC(=O)/C=C\[C@H](C)OC(=O)C(C)(C)C)C[C@@H]1C [Compound 38f],1.2 nM,,2.4 nM,3.5 nM,5 fold,,,
"CC(=O)O[C@@H](C)/C=C\C(=O)N[C@@H]1C[C@H](C)[C@H](C/C=C(C)/C=C/[C@H]2OC(C)(C)C[C@@]3(CO3)[C@@H]2O)O[C@@H]1C [Meayamycin (1), Meayamycin, reference compound]",0.54 nM,0.31 nM,0.51 nM,0.56 nM,,,,
"CC(/C=C/[C@H]1OC(C)(C)C[C@@]2(CO2)[C@@H]1O)=C\C[C@@H]1O[C@H](C)[C@H](NC(=O)/C=C\[C@H](C)OC(=O)N2CCOCC2)C[C@@H]1C [Meayamycin B (38a), Meayamycin B]",,,,,,0.39 nM,0.55 nM,0.49 nM
